We go through 30 molecules from patent US9994594B2, “Inhibitors of arginase and their therapeutic applications” (MARS, INCORPORATED, priority 2010, dated 2018).

Structures can show the parent of a compound that is named as a salt. Where two headings read alike, the source gives them in different places. Some results are limits rather than exact numbers.

In experiment [1] the target is T1, human arginase I (ARG I) (Homo sapiens, UniProt P05089).
T1 sequence (P05089 1-322): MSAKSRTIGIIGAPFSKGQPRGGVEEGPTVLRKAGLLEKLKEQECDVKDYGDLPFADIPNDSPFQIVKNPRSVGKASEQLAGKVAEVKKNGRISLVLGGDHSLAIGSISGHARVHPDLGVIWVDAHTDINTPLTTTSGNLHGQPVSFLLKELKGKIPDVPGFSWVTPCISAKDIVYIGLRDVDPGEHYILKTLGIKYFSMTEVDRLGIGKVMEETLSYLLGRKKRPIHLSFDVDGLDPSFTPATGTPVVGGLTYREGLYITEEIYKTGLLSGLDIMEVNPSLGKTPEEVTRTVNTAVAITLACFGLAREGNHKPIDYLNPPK
The experiment is described as follows: Inhibition of arginase I, spectrophotometric urea assay at 530 nm. The class given is biochemical. In outline:
(§1)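 IC50 was derived by regression of OD530 normalized to uninhibited-enzyme controls against log concentration. Urea from 60-min, 37 °C turnover of L-arginine with manganese sulfate was detected after acid o-phthaldialdehyde/primaquine quench and 10 min colour development. Arginase I and II came from 100 ng/ml stocks in pH 7.4 phosphate with ovalbumin.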

The target of experiment [2] is T2, arginase II (ARG II) (Homo sapiens, UniProt P78540).
T2 sequence (P78540 23-354): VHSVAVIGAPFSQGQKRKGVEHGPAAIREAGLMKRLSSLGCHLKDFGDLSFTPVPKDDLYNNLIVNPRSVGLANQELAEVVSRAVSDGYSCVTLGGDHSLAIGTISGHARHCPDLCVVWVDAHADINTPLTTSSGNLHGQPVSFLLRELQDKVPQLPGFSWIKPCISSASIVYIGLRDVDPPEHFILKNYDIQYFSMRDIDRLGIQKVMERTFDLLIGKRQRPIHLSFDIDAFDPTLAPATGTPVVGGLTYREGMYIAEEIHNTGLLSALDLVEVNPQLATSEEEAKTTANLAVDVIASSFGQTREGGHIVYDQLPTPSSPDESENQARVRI
The experiment is described as follows: Inhibition of arginase II, spectrophotometric urea assay at 530 nm. The class given is biochemical. In short, it runs like this:
as §1

Where [3] appears, read: Formula I compounds, Table 2, read-out: Potency (ARG I).
Setting [4] is: Formula I compounds, Table 2, read-out: Potency (ARG II).

As to `COc1ccc(CN(C)CCC(N)(CCCCB(O)O)C(=O)O)cc1` (stereo not drawn) [compound 27, 2-amino-6-borono-2-(2-((4-methoxybenzyl)(methyl)amino)ethyl)hexanoic acid dihydrochloride], the IC50 in experiment [1] (setting [3]) and in experiment [2] (setting [4]) was 1000 to 2000 nM throughout.

`NC(CCCCB(O)O)(CCN1CC=C(c2ccccc2)CC1)C(=O)O` (stereo not drawn) [compound 28, 2-amino-6-borono-2-(2-(4-phenyl-5,6-dihydropyridin-1(2H)-yl)ethyl)hexanoic acid dihydrochloride]: the figures for the IC50 in experiment [1] (setting [3]) and in experiment [2] (setting [4]) were 251 to 1000 nM and 1000 to 2000 nM, respectively.

On to `NC(CCCCB(O)O)(CCN1CCc2sccc2C1)C(=O)O` (stereo not drawn) [compound 29, 2-amino-6-borono-2-(2-(6,7-dihydrothieno[3,2-c]pyridin-5(4H)-yl)ethyl)hexanoic acid dihydrochloride], for which the IC50 was 251 to 1000 nM in experiment [1] (setting [3]) and 1000 to 2000 nM in experiment [2] (setting [4]).

For the molecule `NC(CCCCB(O)O)(CCN1CCc2[nH][nH]c(=O)c2C1)C(=O)O` (stereo not drawn) [compound 30, 2-amino-6-borono-2-(2-(3-oxo-2,3,6,7-tetrahydro-1H-pyrazolo[4,3-c]pyridin-5(4H)-yl)ethyl)hexanoic acid dihydrochloride], the values for the IC50 in experiment [1] (setting [3]) and in experiment [2] (setting [4]) were 251 to 1000 nM and 1000 to 2000 nM, respectively.

As for `COc1ccc(C2=CCN(CCC(N)(CCCCB(O)O)C(=O)O)CC2)cc1` (stereo not drawn) [compound 31, 2-amino-6-borono-2-(2-(4-(4-methoxyphenyl)-5,6-dihydropyridin-1(2H)-yl)ethyl)hexanoic acid dihydrochloride], the IC50 in experiment [1] (setting [3]) and in experiment [2] (setting [4]) was 251 to 1000 nM in each case.

As to `COC[C@@H]1CCCN1CCC(N)(CCCCB(O)O)C(=O)O` (stereo partly drawn) [compound 33, 2-amino-6-borono-2-(2-((S)-2-(methoxymethyl)pyrrolidin-1-yl)ethyl)hexanoic acid dihydrochloride], the IC50 in experiment [1] (setting [3]) and in experiment [2] (setting [4]) was 251 to 1000 nM in each case.

On to `NC(CCCCB(O)O)(CCN1CCC(O)(Cc2ccccc2)CC1)C(=O)O` (stereo not drawn) [compound 34, 2-amino-2-(2-(4-benzyl-4-hydroxypiperidin-1-yl)ethyl)-6-boronohexanoic acid dihydrochloride], for which the values for the IC50 in experiment [1] (setting [3]) and in experiment [2] (setting [4]) were 251 to 1000 nM and 1000 to 2000 nM, respectively.

Regarding `NC(CCCCB(O)O)(CCN1CCc2ccccc2C1)C(=O)O` (stereo not drawn) [compound 36, 2-amino-6-borono-2-(2-(3,4-dihydroisoquinolin-2(1H)-yl)ethyl)hexanoic acid dihydrochloride], the IC50 in experiment [1] (setting [3]) was in the range of 251 to 1000 nM; in experiment [2] (setting [4]), 1000 to 2000 nM.

`CCN(CC)CCC(N)(CCCCB(O)O)C(=O)O` (stereo not drawn) [compound 37, 2-amino-6-borono-2-(2-(diethylamino)ethyl)hexanoic acid dihydrochloride]: the IC50 lay within 251 to 1000 nM in experiment [1] (setting [3]) and 1000 to 2000 nM in experiment [2] (setting [4]).

In the case of `NC(CCCCB(O)O)(CCN1CCC(=O)CC1)C(=O)O` (stereo not drawn) [compound 38, 2-amino-6-borono-2-(2-(4-oxopiperidin-1-yl)ethyl)hexanoic acid dihydrochloride], the IC50 in experiment [1] (setting [3]) and in experiment [2] (setting [4]) was 2000 to 5000 nM in each case.

For `NC(CCCCB(O)O)(CCN1CCC(C(F)(F)F)CC1)C(=O)O` (stereo not drawn) [compound 39, 2-amino-6-borono-2-(2-(4-(trifluoromethyl)piperidin-1-yl)ethyl)hexanoic acid dihydrochloride], the IC50 was in the range of 1000 to 2000 nM in experiment [1] (setting [3]) and 2000 to 5000 nM in experiment [2] (setting [4]).

Take `NC(CCCCB(O)O)(CCN1CCC[C@H]1CN1CCCC1)C(=O)O` (stereo partly drawn) [compound 40, 2-amino-6-borono-2-(2-((S)-2-(pyrrolidin-1-ylmethyl)pyrrolidin-1-yl)ethyl)hexanoic acid trihydrochloride]: the values for the IC50 in experiment [1] (setting [3]) and in experiment [2] (setting [4]) were 1000 to 2000 nM and 2000 to 5000 nM, respectively.

Regarding `COC1CCN(CCC(N)(CCCCB(O)O)C(=O)O)CC1` (stereo not drawn) [compound 41, 2-amino-6-borono-2-(2-(4-methoxypiperidin-1-yl)ethyl)hexanoic acid dihydrochloride], the results for the IC50 in experiment [1] (setting [3]) and in experiment [2] (setting [4]) were 1000 to 2000 nM and 2000 to 5000 nM, respectively.

`NC(CCCCB(O)O)(CCN1CCCC1c1cc2ccccc2o1)C(=O)O` (stereo not drawn) [compound 42, 2-amino-2-(2-(2-(benzofuran-2-yl)pyrrolidin-1-yl)ethyl)-6-boronohexanoic acid dihydrochloride]: the IC50 in experiment [1] (setting [3]) and in experiment [2] (setting [4]) was 2000 to 5000 nM in each case.

As to `CN(CCO)CCC(N)(CCCCB(O)O)C(=O)O` (stereo not drawn) [compound 43, 2-amino-6-borono-2-(2-((2-hydroxyethyl)(methyl)amino)ethyl)hexanoic acid dihydrochloride], the values for the IC50 in experiment [1] (setting [3]) and in experiment [2] (setting [4]) were 1000 to 2000 nM and 2000 to 5000 nM, respectively.

In the case of `NC(CCCCB(O)O)(CCN1CCC(F)(F)C1)C(=O)O` (stereo not drawn) [compound 44, 2-amino-6-borono-2-(2-(3,3-difluoropyrrolidin-1-yl)ethyl)hexanoic acid dihydrochloride], the IC50 in experiment [1] (setting [3]) and in experiment [2] (setting [4]) was over 5000 nM each time.

With `CC(=O)C1(c2ccccc2)CCN(CCC(N)(CCCCB(O)O)C(=O)O)CC1` (stereo not drawn) [compound 45, 2-(2-(4-acetyl-4-phenylpiperidin-1-yl)ethyl)-2-amino-6-boronohexanoic acid dihydrochloride], the IC50 in experiment [1] was in the range of 1000 to 2000 nM; in experiment [2] it was 2000 to 5000 nM.

As to `NC(CCCCB(O)O)(CCN1CCC[C@@H]1C(F)(F)F)C(=O)O` (stereo partly drawn) [compound 46, 2-amino-6-borono-2-(2-((R)-2-(trifluoromethyl)pyrrolidin-1-yl)ethyl)hexanoic acid dihydrochloride], the IC50 in experiment [1] (setting [3]) and in experiment [2] (setting [4]) was over 5000 nM each time.

Take `NC(CCCCB(O)O)(CCN1CCC(F)CC1)C(=O)O` (stereo not drawn) [compound 47, 2-amino-6-borono-2-(2-(4-fluoropiperidin-1-yl)ethyl)hexanoic acid dihydrochloride]: the IC50 in experiment [1] (setting [3]) was in the range of 1000 to 2000 nM; in experiment [2] (setting [4]) it was 2000 to 5000 nM.

For the molecule `CN(CCC(N)(CCCCB(O)O)C(=O)O)Cc1ccc(F)c(C(F)(F)F)c1` (stereo not drawn) [compound 48, 2-amino-6-borono-2-(2-((4-fluoro-3-(trifluoromethyl)benzyl)(methyl)amino)ethyl)hexanoic acid dihydrochloride], the IC50 is 2000 to 5000 nM in experiment [1] (setting [3]) and over 5000 nM in experiment [2] (setting [4]).

As for `CN1CCCN(CCC(N)(CCCCB(O)O)C(=O)O)CC1` (stereo not drawn) [compound 49, 2-amino-6-borono-2-(2-(4-methyl-1,4-diazepan-1-yl)ethyl)hexanoic acid dihydrochloride], the IC50 in experiment [1] (setting [3]) and in experiment [2] (setting [4]) was 2000 to 5000 nM in each case.

For the molecule `COc1ccccc1N1CCN(CCC(N)(CCCCB(O)O)C(=O)O)CC1` (stereo not drawn) [compound 50, 2-amino-6-borono-2-(2-(4-(2-methoxyphenyl)piperazin-1-yl)ethyl)hexanoic acid dihydrochloride], the IC50 in experiment [1] (setting [3]) and in experiment [2] (setting [4]) was over 5000 nM each time.

Regarding `NCCN(CCN)CCC(N)(CCCCB(O)O)C(=O)O` (stereo not drawn) [compound 51, 2-amino-2-(2-(bis(2-aminoethyl)amino)ethyl)-6-boronohexanoic acid tetrahydrochloride], the IC50 in experiment [1] (setting [3]) fell in the range of 1000 to 2000 nM; in experiment [2] (setting [4]), 2000 to 5000 nM.

As for `NC(CCCCB(O)O)(CCN1CCCCC1C(=O)O)C(=O)O` (stereo not drawn) [compound 52, 1-(3-amino-7-borono-3-carboxyheptyl)piperidine-2-carboxylic acid dihydrochloride], the IC50 in experiment [1] (setting [3]) and in experiment [2] (setting [4]) was 2000 to 5000 nM throughout.

As to `NC(CCCCB(O)O)(CCN1CCC[C@@H](C(=O)O)C1)C(=O)O` (stereo partly drawn) [compound 53, (3R)-1-(3-amino-7-borono-3-carboxyheptyl)piperidine-3-carboxylic acid], the IC50 in experiment [1] (setting [3]) and in experiment [2] (setting [4]) was 2000 to 5000 nM in each case.

Consider `CN(C)C(=O)[C@@H]1CCCN1CCC(N)(CCCCB(O)O)C(=O)O` (stereo partly drawn) [compound 54, 2-amino-6-borono-2-(2-((S)-2-(dimethylcarbamoyl)pyrrolidin-1-yl)ethyl)hexanoic acid dihydrochloride], for which the IC50 in experiment [1] (setting [3]) and in experiment [2] (setting [4]) was over 5000 nM each time.

`CC(C)NCCC(N)(CCCCB(O)O)C(=O)O` (stereo not drawn) [compound 55, 2-amino-6-borono-2-(2-(isopropylamino)ethyl)hexanoic acid dihydrochloride]: the IC50 in experiment [1] (setting [3]) lay in the range of 0.1 to 250 nM; in experiment [2] (setting [4]), 251 to 1000 nM.

Take `NC(CCCCB(O)O)(CCN1CCC[C@H](C(=O)O)C1)C(=O)O` (stereo partly drawn) [compound 56, (3S)-1-(3-amino-7-borono-3-carboxyheptyl)piperidine-3-carboxylic acid dihydrochloride]: the IC50 in experiment [1] (setting [3]) lay in the range of 1000 to 2000 nM; in experiment [2] (setting [4]), 2000 to 5000 nM.

Turning to `CC1(C(=O)O)CCN(CCC(N)(CCCCB(O)O)C(=O)O)CC1` (stereo not drawn) [compound 57, 1-(3-amino-7-borono-3-carboxyheptyl)-4-methylpiperidine-4-carboxylic acid], the IC50 in experiment [1] (setting [3]) and in experiment [2] (setting [4]) was 1000 to 2000 nM throughout.

As to `NC(CCCCB(O)O)(CCNC1Cc2ccccc2C1)C(=O)O` (stereo not drawn) [compound 58, 2-amino-6-borono-2-(2-(2,3-dihydro-1H-inden-2-ylamino)ethyl)hexanoic acid dihydrochloride], the IC50 in experiment [1] (setting [3]) and in experiment [2] (setting [4]) was 0.1 to 250 nM each time.
